Results published in ChEMBL document CHEMBL5729354, “Substituted pyrrolo[2,3-d]pyrimidines as JAK inhibitors” (2022).

Legend:
[1] = target: Tyrosine-protein kinase JAK2 (Homo sapiens, UniProt O60674); test: (§1) JAK/TYK2 Assay: 10 mM test compound stock or 1 mM control compound stock (tofocitinib, ruxolitinib or staurosporine) in DMSO was diluted to 0.4 mM in DMSO. A 3-fold series dilution was then performed in DMSO to generate 10 different compound concentrations. The assay was carried out in 384-well white plate. 0.5 uL of 40× compound DMSO solution at different concentrations was mixed with 10 uL 2× enzyme prepared in reaction buffer (20 mM HEPES, 10 mM MgCl2, 0.01% Tween, 1 mM DTT, pH 7.5). 10 uL 2× substrate mixture prepared in reaction buffer was then added to start the reaction. A short spin was done to settle down all solutions to the bottom of the plate. Final concentrations of test compound in the reaction mixture were 10000, 3333, 1111, 370, 123, 41.2, 13.7, 4.57, 1.52 and 0.51 nM. Concentrations of control compound were ten times less. Enzymatic reaction was conducted at 25° C. for 1-2 hours. 10 uL of Kinase Glo Reagents was added to stop the reaction and generate the luminescent signal which was measured using Envision. Luminescence signal was inversely related to kinase activity. […] The mixture without any compound was the positive control. [ATP] [sub] timeJAK1 7.5 nM 2 uM 30 uM (IRS-1) 1 hrJAK2 0.8 nM 2 uM 4 uM (pEY) 1 hrJAK3 1.5 nM 2 uM 4 uM (pEY) 1 hrTYK2 9 nM 2 uM 30 uM (IRS-1) 1 hr
[2] = target: Tyrosine-protein kinase JAK1 (Homo sapiens, UniProt P23458); test: as §1
[3] = target: T1, Tyrosine-protein kinase JAK3 (Homo sapiens, UniProt P52333); test: as §1
T1 sequence (P52333 whole entry): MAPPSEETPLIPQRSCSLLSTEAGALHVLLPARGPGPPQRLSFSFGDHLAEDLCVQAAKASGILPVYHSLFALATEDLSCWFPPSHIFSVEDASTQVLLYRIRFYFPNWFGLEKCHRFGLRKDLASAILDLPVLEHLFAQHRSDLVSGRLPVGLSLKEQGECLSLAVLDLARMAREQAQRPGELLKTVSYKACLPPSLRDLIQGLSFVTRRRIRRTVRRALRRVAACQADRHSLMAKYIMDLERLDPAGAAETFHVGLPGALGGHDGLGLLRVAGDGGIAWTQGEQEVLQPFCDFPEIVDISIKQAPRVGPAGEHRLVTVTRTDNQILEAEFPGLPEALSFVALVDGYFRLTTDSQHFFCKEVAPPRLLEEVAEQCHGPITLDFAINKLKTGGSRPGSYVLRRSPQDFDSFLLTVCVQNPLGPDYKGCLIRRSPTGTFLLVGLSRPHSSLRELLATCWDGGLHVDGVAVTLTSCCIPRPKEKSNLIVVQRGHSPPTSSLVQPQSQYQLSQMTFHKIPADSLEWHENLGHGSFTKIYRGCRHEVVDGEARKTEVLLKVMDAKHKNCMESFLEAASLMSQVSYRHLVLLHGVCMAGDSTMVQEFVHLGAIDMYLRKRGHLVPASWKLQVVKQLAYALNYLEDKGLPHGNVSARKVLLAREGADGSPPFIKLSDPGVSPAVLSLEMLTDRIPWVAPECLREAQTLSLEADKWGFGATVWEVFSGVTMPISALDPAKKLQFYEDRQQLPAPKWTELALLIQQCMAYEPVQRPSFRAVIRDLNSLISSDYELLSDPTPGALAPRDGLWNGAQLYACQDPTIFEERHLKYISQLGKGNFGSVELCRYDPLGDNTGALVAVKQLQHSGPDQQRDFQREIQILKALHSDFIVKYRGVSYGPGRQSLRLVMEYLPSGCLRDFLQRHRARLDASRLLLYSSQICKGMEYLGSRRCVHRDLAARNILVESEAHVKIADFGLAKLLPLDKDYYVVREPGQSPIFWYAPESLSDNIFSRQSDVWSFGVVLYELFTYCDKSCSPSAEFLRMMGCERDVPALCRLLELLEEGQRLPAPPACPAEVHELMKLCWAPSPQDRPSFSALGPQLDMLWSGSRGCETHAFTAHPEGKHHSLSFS

[4] = target: Non-receptor tyrosine-protein kinase TYK2 (Homo sapiens, UniProt P29597); test: as §1

Measured: IC50

Sequence of Tyrosine-protein kinase JAK1 (P23458 whole entry): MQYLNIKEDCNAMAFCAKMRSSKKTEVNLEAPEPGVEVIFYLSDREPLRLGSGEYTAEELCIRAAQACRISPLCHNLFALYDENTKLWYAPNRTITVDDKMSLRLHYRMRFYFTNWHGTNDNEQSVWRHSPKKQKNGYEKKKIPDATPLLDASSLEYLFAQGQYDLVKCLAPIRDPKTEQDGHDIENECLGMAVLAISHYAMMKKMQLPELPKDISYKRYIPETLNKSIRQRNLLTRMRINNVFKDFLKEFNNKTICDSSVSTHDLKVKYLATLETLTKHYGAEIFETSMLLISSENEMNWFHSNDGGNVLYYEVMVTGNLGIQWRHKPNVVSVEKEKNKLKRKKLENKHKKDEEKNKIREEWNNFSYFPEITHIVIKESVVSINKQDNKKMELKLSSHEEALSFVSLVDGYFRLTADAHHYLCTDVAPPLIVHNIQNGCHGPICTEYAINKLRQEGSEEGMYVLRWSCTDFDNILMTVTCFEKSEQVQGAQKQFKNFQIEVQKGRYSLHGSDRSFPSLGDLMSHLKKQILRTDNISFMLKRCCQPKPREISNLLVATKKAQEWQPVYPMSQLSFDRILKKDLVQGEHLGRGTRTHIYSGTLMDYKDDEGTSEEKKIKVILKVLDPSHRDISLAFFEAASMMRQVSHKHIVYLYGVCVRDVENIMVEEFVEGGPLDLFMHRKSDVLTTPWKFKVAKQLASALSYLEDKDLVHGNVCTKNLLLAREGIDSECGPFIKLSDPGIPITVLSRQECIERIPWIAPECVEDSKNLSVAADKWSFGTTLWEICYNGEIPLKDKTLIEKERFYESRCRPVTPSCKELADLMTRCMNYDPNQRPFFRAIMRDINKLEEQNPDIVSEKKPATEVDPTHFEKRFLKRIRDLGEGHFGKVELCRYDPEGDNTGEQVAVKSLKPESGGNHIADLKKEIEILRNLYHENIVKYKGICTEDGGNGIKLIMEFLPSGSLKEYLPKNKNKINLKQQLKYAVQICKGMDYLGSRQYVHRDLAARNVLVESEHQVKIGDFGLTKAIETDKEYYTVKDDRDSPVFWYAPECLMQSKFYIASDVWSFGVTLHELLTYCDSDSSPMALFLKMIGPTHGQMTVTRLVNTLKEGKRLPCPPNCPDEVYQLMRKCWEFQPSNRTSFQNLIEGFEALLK
Sequence of Non-receptor tyrosine-protein kinase TYK2 (P29597 whole entry): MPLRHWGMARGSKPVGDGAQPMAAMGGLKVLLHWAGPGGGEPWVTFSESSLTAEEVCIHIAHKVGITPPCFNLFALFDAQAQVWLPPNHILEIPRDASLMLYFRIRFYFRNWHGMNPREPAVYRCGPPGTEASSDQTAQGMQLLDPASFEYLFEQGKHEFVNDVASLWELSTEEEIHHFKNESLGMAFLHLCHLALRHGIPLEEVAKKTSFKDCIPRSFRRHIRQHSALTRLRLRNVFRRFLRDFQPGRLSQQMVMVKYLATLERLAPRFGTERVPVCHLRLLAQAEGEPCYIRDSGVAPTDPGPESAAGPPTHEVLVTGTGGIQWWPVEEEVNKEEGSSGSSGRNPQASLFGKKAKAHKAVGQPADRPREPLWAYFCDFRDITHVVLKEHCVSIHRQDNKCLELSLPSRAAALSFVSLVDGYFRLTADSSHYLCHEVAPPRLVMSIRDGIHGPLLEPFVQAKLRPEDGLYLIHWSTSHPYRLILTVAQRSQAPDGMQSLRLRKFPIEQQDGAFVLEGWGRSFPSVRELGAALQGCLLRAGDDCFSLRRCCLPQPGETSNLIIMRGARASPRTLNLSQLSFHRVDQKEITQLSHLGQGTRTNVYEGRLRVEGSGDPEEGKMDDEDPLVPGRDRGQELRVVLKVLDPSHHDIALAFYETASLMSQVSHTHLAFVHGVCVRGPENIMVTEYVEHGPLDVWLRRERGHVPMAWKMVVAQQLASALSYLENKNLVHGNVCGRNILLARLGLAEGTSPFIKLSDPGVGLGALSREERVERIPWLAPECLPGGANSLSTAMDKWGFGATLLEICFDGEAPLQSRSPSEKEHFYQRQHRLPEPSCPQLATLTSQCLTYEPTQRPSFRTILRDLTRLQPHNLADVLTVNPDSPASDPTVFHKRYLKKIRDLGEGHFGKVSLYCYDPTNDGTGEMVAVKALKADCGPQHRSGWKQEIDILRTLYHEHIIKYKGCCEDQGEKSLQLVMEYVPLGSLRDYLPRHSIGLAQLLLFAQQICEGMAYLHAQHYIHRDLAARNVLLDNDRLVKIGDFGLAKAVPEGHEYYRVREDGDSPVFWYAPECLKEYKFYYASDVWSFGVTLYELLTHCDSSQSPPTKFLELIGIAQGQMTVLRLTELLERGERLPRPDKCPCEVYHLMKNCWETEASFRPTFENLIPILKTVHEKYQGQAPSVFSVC
Sequence of Tyrosine-protein kinase JAK2 (O60674 whole entry): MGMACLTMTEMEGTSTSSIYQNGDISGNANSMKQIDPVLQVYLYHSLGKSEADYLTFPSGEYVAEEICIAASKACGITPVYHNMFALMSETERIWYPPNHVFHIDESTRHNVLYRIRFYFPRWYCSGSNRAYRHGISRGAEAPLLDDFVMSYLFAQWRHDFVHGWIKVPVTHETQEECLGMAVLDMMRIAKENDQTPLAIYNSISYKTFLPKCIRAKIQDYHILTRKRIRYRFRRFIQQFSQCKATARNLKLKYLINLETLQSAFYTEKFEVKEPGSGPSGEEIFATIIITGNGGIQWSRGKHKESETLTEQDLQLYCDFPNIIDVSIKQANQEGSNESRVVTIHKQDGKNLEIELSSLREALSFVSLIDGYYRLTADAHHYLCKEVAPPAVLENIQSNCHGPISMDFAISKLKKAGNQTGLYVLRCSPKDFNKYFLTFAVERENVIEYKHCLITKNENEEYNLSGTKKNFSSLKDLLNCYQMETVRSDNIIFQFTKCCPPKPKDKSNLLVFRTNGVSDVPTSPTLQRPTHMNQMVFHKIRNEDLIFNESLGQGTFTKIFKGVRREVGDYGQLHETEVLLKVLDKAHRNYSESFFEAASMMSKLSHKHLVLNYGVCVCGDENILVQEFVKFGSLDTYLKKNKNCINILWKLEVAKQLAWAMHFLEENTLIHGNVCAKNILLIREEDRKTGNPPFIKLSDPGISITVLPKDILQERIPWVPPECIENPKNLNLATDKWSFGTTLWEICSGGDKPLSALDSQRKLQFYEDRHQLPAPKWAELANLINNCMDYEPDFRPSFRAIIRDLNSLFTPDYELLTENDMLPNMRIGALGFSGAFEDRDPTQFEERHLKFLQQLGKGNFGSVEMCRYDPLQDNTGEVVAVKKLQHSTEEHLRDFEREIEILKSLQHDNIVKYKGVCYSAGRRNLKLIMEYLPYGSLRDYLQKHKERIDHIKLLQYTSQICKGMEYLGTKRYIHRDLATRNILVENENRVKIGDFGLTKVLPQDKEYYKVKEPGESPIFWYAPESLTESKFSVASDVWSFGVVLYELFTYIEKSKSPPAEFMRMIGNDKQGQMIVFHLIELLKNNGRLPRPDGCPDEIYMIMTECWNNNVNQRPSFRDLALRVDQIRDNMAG

CCC(CC)Cn1ccc2cnc(Nc3cnn(CC(=O)O[C@@H]4C[C@@H](C(=O)OC)N(C)C4)c3)nc21
< 100 nM: all assays above
